The values that follow come from PubChem BioAssay (NCI).

Where “and” joins values, the source holds several entries; their conditions need not be identical. Equal values may be shown once.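 The compound was tested at five concentrations on cells cultured in 96-well plates, with a 48-hour exposure period. Abbreviation: GI50, concentration required for 50% inhibition of growth. TGI: concentration producing complete growth inhibition.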

Common to all, as to assay: NCI tumour cell line growth inhibition, 48 h
Assay [1] relates to DU-145 prostate.
The subject of assay [2] is HCT-15 colon.
In assay [3] the test system is HOP-62 NSCLC.
The test system of assay [4] is HL-60(TB) leukemia.
In assay [5] the test system is MCF7 breast.
The test system of assay [6] is CCRF-CEM leukemia.
For assay [7], the system named is HS 578T breast.
Assay [8] relates to RPMI-8226 leukemia.
Assay [9] has as its system A498 renal.
For assay [10], the system named is UO-31 renal.

On to `CN1CCN(c2ccc(Nc3ncc4cc5n(c4n3)C3(CCCCC3)CNC5=O)nc2)CC1`, for which the GI50 in assay [1] is 3430 nM; in assay [2] it was 2160 nM; in assay [3], 1060 nM; in assay [4], 65.1 nM; in assay [5], 0.109 µM; in assay [6], 203 nM. For the same molecule, the GI50 in [7] is 1710 nM; in assay [8], 62.4 nM; in assay [9], 170 nM; in assay [10], 670 nM. Besides, the TGI was 17.2 µM in assay [1]; 13.2 µM in [2]; 12.8 µM in assay [3]; 3.04 µM in [4]; 14.6 µM in assay [5]; 3.6 µM in assay [6]. Moreover, the TGI in [7] turned out to be 8.8 µM; in assay [8], 4.04 µM; in assay [9], 1.8 µM; in [10], 12.9 µM.

As to `COc1cc(-c2nn(-c3cccc(NC(=O)CCN4CCN(C)CC4)c3)cc2-c2ccncc2)ccc1Cl`, the GI50 was 997 nM in assay [1]; 1080 nM in [2]; 1360 nM in assay [3]; 735 nM in assay [4]; 0.35 µM in assay [5]; 1980 nM in assay [6]. Besides, the GI50 is 1410 nM in [7], 1770 nM in assay [8], 412 nM in assay [9] and 1380 nM in assay [10]. Also, the TGI in assay [1] came to 6.24 µM; in [2] it was 4.11 µM; in [3], 4.38 µM; in assay [4] it was 2.79 µM; in [5], 1.92 µM; in [6] it was 6.85 µM. Also, the TGI in assay [7] stood at 6.39 µM; in assay [8], 4.56 µM; in assay [9], 3.23 µM; in [10], 3.91 µM.

Regarding `COC1=CC2CCN3Cc4cc5c(cc4C(C1O)C23)OCC5` (centres undefined), the GI50 was 2560 nM in [1]; 1310 nM in assay [2]; 3610 nM in [3]; 4750 nM in assay [4]; 3.36 µM in [5]; 5700 nM in assay [7]. Besides, the GI50 in assay [8] was 15000 nM; in assay [9], 17700 nM; in assay [10] it was 5880 nM. Besides, the TGI in assay [1] is 21.2 µM; in assay [2] it was 8.49 µM; in assay [3], above 61.4 µM; in assay [4], above 25.7 µM; in [5], above 100 µM; in assay [6], above 100 µM. The TGI in [7] is above 32.7 µM; in assay [8] it was above 29.1 µM; in assay [9] it was 98.8 µM; in [10] it was above 46.6 µM.

Take `COc1cc(NC(=O)c2ccccc2Nc2ccnc(C(F)(F)F)c2)cc(OC)c1OC`: the GI50 was 95400 nM in [1]; 56100 nM in assay [2]; 88900 nM in [3]; 44300 nM in assay [4]; 37.1 µM in assay [5]; 50700 nM in [6]. Also, the GI50 in assay [7] was 58800 nM; in [8] it was 36300 nM; in assay [9], 26600 nM; in [10] it was 19800 nM. Also, the TGI in [1], in assay [2], in assay [3], in [4], in [5] and in assay [6] was above 100 µM each time. Further, the TGI in [7] was above 100 µM; in assay [8] it was above 100 µM; in assay [9] it was above 100 µM; in assay [10] it was 92.1 µM.

For the molecule `C#Cc1ccc(-n2c(/C=C/c3ccc4ccccc4c3)nc3ncccc3c2=O)cc1`, the GI50 in assay [1] was 7450 nM; in [2], 2910 nM; in assay [3], 7450 nM; in assay [4], 1660 nM; in assay [5] it was 2.43 µM; in assay [6] it was 1530 nM. For the same molecule, the GI50 is 7620 nM in assay [7], 451 nM in [8], 1690 nM in [9] and 3110 nM in assay [10]. In addition, the TGI was above 100 µM in [1]; above 100 µM in [2]; above 100 µM in assay [3]; 8.83 µM in assay [4]; above 100 µM in assay [5]; above 100 µM in assay [6]. The TGI in assay [7] was above 100 µM; in assay [8] it was above 100 µM; in assay [9], 5.86 µM; in assay [10], above 100 µM.

Regarding `CNc1ncc2cc(-c3cc(NC(=O)NCCC(C)(C)C)c(F)cc3C)c(C)nc2n1`, the GI50 in assay [1] was 535 nM and 685 nM; in assay [2], 407 nM and 429 nM; in assay [3] it was 195 nM and 298 nM; in assay [4], 66.8 nM and 81.1 nM; in assay [5], 4.98 µM and 8.58 µM; in assay [6], 10100 nM and > 9360 nM. The GI50 in [7] is 839 nM and 582 nM; in assay [8], 907 nM and 685 nM; in assay [9], 149 nM and 167 nM; in assay [10], 143 nM and 117 nM. For the same molecule, the TGI in [1] was above 100 µM; in assay [2] it was above 64.8 µM; in assay [3], 12.7 µM and > 10 µM; in assay [4], 17.8 µM and > 10 µM; in [5] it was above 100 µM; in assay [6] it was above 100 µM. Also, the TGI in assay [7] is 33.5 µM and > 10 µM; in [8], above 52.6 µM; in assay [9], 0.743 µM and 0.65 µM; in assay [10] it was above 67.7 µM.
